Tests used:
animals = conditions: in vivo
Excerpt: The toxicological profile of the Cupuassuamido propyl betaine was compared to Cocamido propyl betaine.

Experimental for Red Blood Cell: The Red Blood Cell Test (RBC) was carried out with the combination of Sodium Lauryl Ether Sulfate (SLES) and Cupuassuamido Propyl Betaine (CupAPB) or Sodium Lauryl Ether Sulfate (SLES) and Cocamido Propyl Betaine (CAPB) in different concentrations.

Substance | Cumulative Dermic Irritation (animals) | Ocular Irritability (animals) | Primary Dermic Irritation (animals) | H/O (Red Blood Cell) | hemolysis (H) (Red Blood Cell) | oxidation (O) (Red Blood Cell)
Cupuassuamido propyl betaine | Minimum irritating | Not irritating | Not irritating | – | – | –
Sodium Laureth Sulfate [SLES (7.10%)] | – | – | – | 17.1 | 275.0 | 16.10
Cocamido propyl betaine | Moderately irritating | Moderately irritating | Minimum irritating | – | – | –

— patent publication US7951842B2, “Use of Cupuassu butter based amphoteric amidoamines as amphoteric surfactants” (Cognis Brasil Ltda., priority 2004, dated 2011)
